Laboratory results published in patent publication US6667311B2, “Nitrogen substituted biaryl purine derivatives as potent antiproliferative agents” (Albany Molecular Research, Inc., priority 2001, dated 2003).
Entries after “also recorded” stand apart in the source; their conditions may differ. Where two headings read alike, the source gives them in different places. Each block holds one compound with its values, some of them ahead of it.

Key:
[1] = tested on: HeLa S-3 cells; assay: Inhibition of cell growth, HeLa cells (SRB); type: cell-based, human; details: for IC50: Table 2, growth inhibition, 2 days, replicate experiments, read-out: CI50 HeLa Cells
Method: Growth inhibition (GI50) values were measured with HeLa S-3 cells selected for growth on plastic. […] One day later, a control plate was fixed by addition of TCA to 5%. After five rinses with tap water the plate was air dried and stored at 4° C. Test compounds were added to the remaining plates at 10-fold dilutions between 0.01 and 100 μM. Two days later all plates were fixed as described above. Cells were then stained by the addition of 100μl per well of 0.4% sulforhodamine B (SRB) in 1% acetic acid for 30 min at 4° C. Wells were then quickly rinsed 5×with acetic acid (1%) and allowed to air dry. The SRB was then solubilized by the addition of 100 μl per well of unbuffered 10 mM Tris base. Dye was quantified by measuring absorbance at 490 nm on a Molecular Devices kinetic microplate reader. Growth at each inhibitor concentration relative to the untreated control was calculated according to the following equation: percent growth=100×(T−To)/(C−To), where T was the average optical density (OD) of the test wells after 2 days of treatment, To was the average OD of the wells in the control plate on day 0 and C was the average OD of untreated wells. Plots of percent growth versus inhibitor concentration were used to determine the GI50.

[2] = biological target: T1, CyclinB/cdk1 (Homo sapiens, UniProt P06493); assay: CyclinB/cdk1 protein kinase assay (histone H1 phosphorylation, immunopurified complex from HeLa); type: biochemical; details: Table 2; replicate experiments
T1 construct: Monoclonal antibody against cyclinB (GNS1) is added to the supernatant; endogenous in cells

[3] = tested on: Tumor Cells in Hollow Fibers; assay: NCI Hollow Fiber Assay; type: in vivo
[4] = biological target: CyclinA/cdk2 (Homo sapiens, UniProt P24941); assay: CyclinA/cdk2 protein kinase assay (histone H1 phosphorylation, immunopurified complex from HeLa); details: read-out: IC50 CyclinA cdk2; Table 2; replicate experiments
[5] = biological target: CyclinE/cdk2 (Homo sapiens, UniProt P24941); assay: CyclinE/cdk2 protein kinase assay (histone H1 phosphorylation, immunopurified complex from HeLa); details: read-out: IC50 CyclinE cdk2; Table 2; replicate experiments
[6] = tested on: SK-OV-3; assay: NCI growth inhibition, SK-OV-3; type: cell-based, human; details: Homo sapiens; SK-OV-3 (Ovarian)
[7] = tested on: NCI-H460; assay: NCI growth inhibition, NCI-H460; type: cell-based, human; details: Homo sapiens; NCI-H460 (Non-Small Cell Lung)
[8] = tested on: MALME-3M; assay: NCI growth inhibition, MALME-3M; type: cell-based, human; details: Homo sapiens; MALME-3M (Melanoma)
[9] = tested on: CAKI-1; assay: NCI growth inhibition, CAKI-1; type: cell-based, human; details: Homo sapiens; CAKI-1 (Renal)
[10] = tested on: SK-MEL-5; assay: NCI growth inhibition, SK-MEL-5; type: cell-based, human; details: Homo sapiens; SK-MEL-5 (Melanoma)

T1 sequence (P06493 whole entry): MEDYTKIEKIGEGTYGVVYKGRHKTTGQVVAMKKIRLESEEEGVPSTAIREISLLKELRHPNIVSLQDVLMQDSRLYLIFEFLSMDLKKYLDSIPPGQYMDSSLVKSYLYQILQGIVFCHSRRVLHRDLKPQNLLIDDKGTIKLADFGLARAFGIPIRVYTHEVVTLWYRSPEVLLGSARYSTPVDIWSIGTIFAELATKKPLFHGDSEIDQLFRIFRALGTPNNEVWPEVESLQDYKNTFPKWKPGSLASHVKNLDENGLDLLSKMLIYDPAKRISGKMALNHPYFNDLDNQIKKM
T1 sequence (P14635 whole entry partner): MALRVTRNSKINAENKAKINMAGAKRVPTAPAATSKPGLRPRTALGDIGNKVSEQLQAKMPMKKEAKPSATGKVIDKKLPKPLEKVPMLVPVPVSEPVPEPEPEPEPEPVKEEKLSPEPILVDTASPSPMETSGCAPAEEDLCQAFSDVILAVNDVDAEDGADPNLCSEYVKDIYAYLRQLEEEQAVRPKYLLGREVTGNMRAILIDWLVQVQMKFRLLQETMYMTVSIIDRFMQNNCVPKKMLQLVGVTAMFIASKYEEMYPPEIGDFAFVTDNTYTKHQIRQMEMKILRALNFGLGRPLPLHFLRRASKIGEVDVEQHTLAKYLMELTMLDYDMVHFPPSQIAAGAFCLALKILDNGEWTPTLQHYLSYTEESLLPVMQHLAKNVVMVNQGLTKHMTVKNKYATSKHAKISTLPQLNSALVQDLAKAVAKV

IC50 [1]: 500 nM
Compound: CC[C@H](CO)Nc1nc(NCc2ccc(-c3ccccc3)cc2)c2ncn(C(C)C)c2n1 [Compound 73]

IC50 [2]: 10 µM
Compound: CC(=O)N[C@H]1CC[C@H](Nc2nc(NCc3ccc(-c4ccc(C)cc4)cc3)c3ncn(C(C)C)c3n2)CC1 [Compound 97]

Compound: CC(C)n1cnc2c(NCc3ccc(-c4cccnc4)cc3)nc(N[C@H]3CC[C@H](N)CC3)nc21 [Compound 103]
Cell Types Killed [3]: OVCAR 3,OVCAR 5,; also recorded: H522, MDA-MB-435, SF295

Compound: CC(=O)N[C@H]1CC[C@H](Nc2nc(NCc3ccc(-c4ccsc4)nc3)c3ncn(C(C)C)c3n2)CC1 [Compound 124]
Cell Types Killed [3]: H23, H522, OVCAR-3,; also recorded: MDA-MB-435

IC50 [1]: 20 nM
Compound: CC(=O)N[C@H]1CC[C@H](Nc2nc(NCc3ccc(-c4cccc(Cl)c4)cc3)c3ncn(C(C)C)c3n2)CC1 [Compound 110]

IC50 ([1]; Homo sapiens, HeLa S3, 48 h): 400 nM
Compound: CC(=O)N[C@H]1CC[C@H](Nc2nc(NCc3ccc(-c4cccc(C)c4)cc3)c3ncn(C(C)C)c3n2)CC1 [Compound 178]

IC50 [1]: 300 nM
Compound: CC(C)n1cnc2c(NCc3ccc(-c4ccccn4)nc3)nc(N[C@H]3CC[C@H](N)CC3)nc21 [Compound 93]

IC50 [4]: 0.2 µM | IC50 [5]: 70 nM
Compound: CC(C)n1cnc2c(NCc3ccc(-c4cccs4)cc3)nc(N[C@H]3CC[C@H](N)CC3)nc21 [Compound 111]

Compound: CC(=O)N[C@H]1CC[C@H](Nc2nc(NCc3ccc(-c4ccccn4)cc3)c3ncn(C(C)C)c3n2)CC1 [Compound 79]
IC50 [4]: 10 µM

Compound: CC(C)n1cnc2c(NCc3ccc(-c4ccccc4)nc3)nc(N[C@H]3CC[C@H](N)CC3)nc21 [Compound 86]
Cell Types Killed [3]: OVCAR 3, OVCAR 5, H522

GI50 ([1]; Homo sapiens, HeLa S3, Table 3, reference compounds in comparison): 7 to 15 µM
Compound: CC[C@H](CO)Nc1nc(NCc2cccnc2)c2ncn(C(C)C)c2n1 [Compound 127, reference compound]

IC50 [4]: 10 µM
Compound: CC(=O)N[C@@H](C)CNc1nc(NCc2ccc(-c3ccccc3)cc2)c2ncn(C(C)C)c2n1 [Compound 108]

Compound: CC(=O)N[C@H]1CC[C@H](Nc2nc(NCc3ccc(-c4ccccn4)nc3)c3ncn(C(C)C)c3n2)CC1 [Compound 94]
Cell Types Killed [3]: COLO 205, OVCAR-3, H522

Compound: CC(=O)N[C@H]1CC[C@H](Nc2nc(NCc3ccc(-c4ccsc4)cc3)c3ncn(C(C)C)c3n2)CC1 [Compound 113]
Cell Types Killed [3]: H23, H522, OVCAR-3

IC50 ([1]; Homo sapiens, HeLa S3, 48 h): 400 nM
Compound: CC(C)n1cnc2c(NCc3ccc(-c4ccccc4)cn3)nc(N[C@H]3CC[C@H](N)CC3)nc21 [Compound 229]

Compound: CC(C)n1cnc2c(NCc3ccc(-c4ccsc4)cc3)nc(N[C@H]3CC[C@H](N)CC3)nc21 [Compound 12]
Cell Types Killed [3]: H522, MDA-MB-435 | GI50 [6]: 18 nM | GI50 [7]: 15 nM | GI50 [8]: 10 nM | GI50 [9]: 38 nM | IC50 [1]: 0.1 nM | GI50 [10]: 14 nM

Compound: CC(C)n1cnc2c(NCc3ccc(-c4ccccn4)cc3)nc(N[C@H]3CC[C@H](N)CC3)nc21 [Compound 78]
Cell Types Killed [3]: H23, H522, OVCAR3, SF29

IC50 ([1]; Homo sapiens, HeLa S3, 48 h): 400 nM
Compound: COc1cccc(-c2ccc(CNc3nc(N[C@H]4CC[C@H](NC(C)=O)CC4)nc4c3ncn4C(C)C)cc2)c1 [Compound 180]
